From ChEMBL document CHEMBL1641470, “New azoles with antifungal activity: Design, synthesis, and molecular docking” (2011)
≈ marks a conversion by molar mass, not a printed value.

Experiments:
Format in all cases: functional
Candida albicans = assay: Antifungal activity against Candida albicans ATCC Y0109 after 24 hrs by broth microdilution method
Cryptococcus neoformans = assay: Antifungal activity against Cryptococcus neoformans ATCC BLS108 after 72 hrs by broth microdilution method
Candida parapsilosis = assay: Antifungal activity against Candida parapsilosis by broth microdilution method; conditions: Lodderomyces parapsilosis
Candida tropicalis = assay: Antifungal activity against Candida tropicalis by broth microdilution method
Trichophyton rubrum = assay: Antifungal activity against Trichophyton rubrum by broth microdilution method
Fusarium = assay: Antifungal activity against Fusarium by broth microdilution method
Nannizzia gypsea = assay: Antifungal activity against Microsporum gypseum by broth microdilution method
Aspergillus fumigatus = assay: Antifungal activity against Aspergillus fumigatus by broth microdilution method

| Structure (SMILES) | MIC80 (Candida albicans) [µg/mL] | MIC80 (Cryptococcus neoformans) [µg/mL] | MIC80 (Candida parapsilosis) [µg/mL] | MIC80 (Candida tropicalis) [µg/mL] | MIC80 (Trichophyton rubrum) [µg/mL] | MIC80 (Fusarium) [µg/mL] | MIC80 (Nannizzia gypsea) [µg/mL] | MIC80 (Aspergillus fumigatus) [µg/mL] |
| --- | --- | --- | --- | --- | --- | --- | --- | --- |
| O=C(/C=C/c1cccc(F)c1)Nc1ccc(N2CCN(CC(O)(Cn3cncn3)c3ccc(F)cc3F)CC2)cc1 (stereo not drawn) | 0.0156 (≈ 0.0277 µM) | 0.25 (≈ 0.444 µM) | 0.25 (≈ 0.444 µM) | 0.25 (≈ 0.444 µM) | 0.25 (≈ 0.444 µM) | 1 (≈ 1.78 µM) | 0.0156 (≈ 0.0277 µM) | 4 (≈ 7.11 µM) |
| COc1ccc(OC)c(/C=C/C(=O)Nc2ccc(N3CCN(CC(O)(Cn4cncn4)c4ccc(F)cc4F)CC3)c(F)c2)c1 (stereo not drawn) | 0.0625 (≈ 0.1 µM) | 1 (≈ 1.61 µM) | 1 (≈ 1.61 µM) | 0.25 (≈ 0.402 µM) | 0.0625 (≈ 0.1 µM) | 64 (≈ 103 µM) | 1 (≈ 1.61 µM) | > 64 |
| O=C(/C=C/c1ccc(Br)cc1)Nc1ccc(N2CCN(CC(O)(Cn3cncn3)c3ccc(F)cc3F)CC2)cc1 (stereo not drawn) | 0.0625 (≈ 0.1 µM) | 0.25 (≈ 0.401 µM) | 0.25 (≈ 0.401 µM) | 0.25 (≈ 0.401 µM) | 0.0156 (≈ 0.025 µM) | 1 (≈ 1.6 µM) | 0.25 (≈ 0.401 µM) | 4 (≈ 6.42 µM) |
| O=C(/C=C/c1cccc(Cl)c1)Nc1ccc(N2CCN(CC(O)(Cn3cncn3)c3ccc(F)cc3F)CC2)cc1 (stereo not drawn) | 0.0625 (≈ 0.108 µM) | 1 (≈ 1.73 µM) | 1 (≈ 1.73 µM) | 0.25 (≈ 0.432 µM) | 1 (≈ 1.73 µM) | 64 (≈ 111 µM) | 0.0156 (≈ 0.0269 µM) | 64 (≈ 111 µM) |
| C[C@@H](c1ncncc1F)[C@](O)(Cn1cncn1)c1ccc(F)cc1F [VORICONAZOLE] | 0.0152 (≈ 0.0435 µM) | 0.0152 (≈ 0.0435 µM) | 1 (≈ 2.86 µM) | 0.25 (≈ 0.716 µM) | 0.0039 (≈ 0.0112 µM) | 0.0152 (≈ 0.0435 µM) | 0.0039 (≈ 0.0112 µM) | > 64 |
| O=C(/C=C/c1ccccc1Cl)Nc1ccc(N2CCN(CC(O)(Cn3cncn3)c3ccc(F)cc3F)CC2)cc1 (stereo not drawn) | 0.0039 (≈ 0.00674 µM) | 0.25 (≈ 0.432 µM) | 0.25 (≈ 0.432 µM) | 0.0625 (≈ 0.108 µM) | 0.0156 (≈ 0.0269 µM) | 1 (≈ 1.73 µM) | 0.0156 (≈ 0.0269 µM) | 4 (≈ 6.91 µM) |
| Cc1ccc(/C=C/C(=O)Nc2ccc(N3CCN(CC(O)(Cn4cncn4)c4ccc(F)cc4F)CC3)cc2)cc1 (stereo not drawn) | 0.0625 (≈ 0.112 µM) | 1 (≈ 1.79 µM) | 0.25 (≈ 0.448 µM) | 0.25 (≈ 0.448 µM) | 0.0156 (≈ 0.0279 µM) | 16 (≈ 28.6 µM) | 0.25 (≈ 0.448 µM) | 64 (≈ 115 µM) |
| COc1ccc(OC)c(/C=C/C(=O)Nc2ccc(N3CCN(CC(O)(Cn4cncn4)c4ccc(F)cc4F)CC3)cc2)c1 (stereo not drawn) | 0.0156 (≈ 0.0258 µM) | 0.25 (≈ 0.413 µM) | 0.25 (≈ 0.413 µM) | 0.0625 (≈ 0.103 µM) | 0.25 (≈ 0.413 µM) | 4 (≈ 6.62 µM) | 1 (≈ 1.65 µM) | > 64 |
| COc1ccc(/C=C/C(=O)Nc2ccc(N3CCN(CC(O)(Cn4cncn4)c4ccc(F)cc4F)CC3)c(F)c2)cc1OC (stereo not drawn) | 0.25 (≈ 0.402 µM) | 1 (≈ 1.61 µM) | 0.25 (≈ 0.402 µM) | 1 (≈ 1.61 µM) | 4 (≈ 6.42 µM) | 4 (≈ 6.42 µM) | 0.25 (≈ 0.402 µM) | > 64 |
| O=C(/C=C/c1cccc([N+](=O)[O-])c1)Nc1ccc(N2CCN(CC(O)(Cn3cncn3)c3ccc(F)cc3F)CC2)cc1 (stereo not drawn) | 0.0156 (≈ 0.0265 µM) | 0.25 (≈ 0.424 µM) | 0.0625 (≈ 0.106 µM) | 0.25 (≈ 0.424 µM) | 0.0625 (≈ 0.106 µM) | 1 (≈ 1.7 µM) | 0.25 (≈ 0.424 µM) | 4 (≈ 6.78 µM) |
| O=C(/C=C/c1ccccc1[N+](=O)[O-])Nc1ccc(N2CCN(CC(O)(Cn3cncn3)c3ccc(F)cc3F)CC2)c(F)c1 (stereo not drawn) | 0.25 (≈ 0.411 µM) | 1 (≈ 1.65 µM) | 1 (≈ 1.65 µM) | 1 (≈ 1.65 µM) | 0.25 (≈ 0.411 µM) | 16 (≈ 26.3 µM) | 1 (≈ 1.65 µM) | 64 (≈ 105 µM) |
| O=C(/C=C/c1ccccc1)Nc1ccc(N2CCN(CC(O)(Cn3cncn3)c3ccc(F)cc3F)CC2)cc1 (stereo not drawn) | 0.0156 (≈ 0.0286 µM) | 0.25 (≈ 0.459 µM) | 0.0625 (≈ 0.115 µM) | 0.0625 (≈ 0.115 µM) | 0.0039 (≈ 0.00716 µM) | 0.0625 (≈ 0.115 µM) | 0.25 (≈ 0.459 µM) | 16 (≈ 29.4 µM) |
| O=C(/C=C/c1ccc(Cl)c(Cl)c1)Nc1ccc(N2CCN(CC(O)(Cn3cncn3)c3ccc(F)cc3F)CC2)c(F)c1 (stereo not drawn) | 1 (≈ 1.58 µM) | 1 (≈ 1.58 µM) | 0.25 (≈ 0.396 µM) | 0.0625 (≈ 0.099 µM) | 0.0625 (≈ 0.099 µM) | 0.25 (≈ 0.396 µM) | 0.25 (≈ 0.396 µM) | 4 (≈ 6.33 µM) |
| N#Cc1cccc(/C=C/C(=O)Nc2ccc(N3CCN(CC(O)(Cn4cncn4)c4ccc(F)cc4F)CC3)cc2)c1 (stereo not drawn) | 0.0156 (≈ 0.0274 µM) | 1 (≈ 1.76 µM) | 0.25 (≈ 0.439 µM) | 0.25 (≈ 0.439 µM) | 1 (≈ 1.76 µM) | 16 (≈ 28.1 µM) | 0.0625 (≈ 0.11 µM) | > 64 |
| OC(Cn1cncn1)(Cn1cncn1)c1ccc(F)cc1F [FLUCONAZOLE] | 4 (≈ 13.1 µM) | 1 (≈ 3.27 µM) | 1 (≈ 3.27 µM) | 1 (≈ 3.27 µM) | 0.25 (≈ 0.816 µM) | 16 (≈ 52.2 µM) | 0.25 (≈ 0.816 µM) | 64 (≈ 209 µM) |
| O=C(/C=C/c1ccc([N+](=O)[O-])cc1)Nc1ccc(N2CCN(CC(O)(Cn3cncn3)c3ccc(F)cc3F)CC2)cc1 (stereo not drawn) | 0.0625 (≈ 0.106 µM) | 1 (≈ 1.7 µM) | 1 (≈ 1.7 µM) | 0.25 (≈ 0.424 µM) | 0.0156 (≈ 0.0265 µM) | 16 (≈ 27.1 µM) | 0.0625 (≈ 0.106 µM) | 4 (≈ 6.78 µM) |
